Reference: US7838562B2, “Methods of inhibiting vascular permeability and apoptosis” (University of Connecticut, priority 2004, dated 2010)
Where two headings read alike, the source gives them in different places.

Tests used:
phospho-Akt = assay: Western blot of Akt phosphorylation in HUVEC; format: cell-based, human; conditions: for increase in Akt phosphorylation levels: 100 nM, after 5 minutes; for time of maximum Akt phosphorylation levels: data not shown; for Akt phosphorylation with Pertussis toxin: incubation with Pertussis toxin
Excerpt: (§1) Endothelial cell morphogenesis, a phenomenon that requires endothelial cell migration, survival and adherens junction assembly, is mediated by the ligand-dependent activation of S1P1 and S1P3 receptors. […] The effects of FTY720-P and analogs on Akt and ERK phosphorylation in HUVEC were studied in a Western blot analysis. Confluent cultures of HUVEC cells were serum starved for two hours in 0.1% ffa-BSA M199 before treatments. Then, they were washed with ice-cold phosphate buffered saline (PBS) containing 1 mM sodium fluoride and 1 mM sodium orthovanadate and homogenized in radioimmunoprecipitation assay buffer (0.1% sodium dodecyl sulfate (SDS), 0.5% sodium deoxycholate, 1% NP-40, 1 mM sodium orthovanadate, 50 mM β-glycerophosphate and 1× protease inhibitor cocktail). Samples were centrifuged 10,000×g for 10 minutes, and protein concentrations of supernatants were determined by Bradford assay (BioRad Protein Dye Reagent). Equal amounts of protein were separated on a 10% polyacrylamide gel and blotted to a nitrocellulose membrane. Immunoblot analysis was performed using Phospho-Akt, Akt, phospho-ERK1/2 or ERK-1/2 antibodies.

phospho-ERK-1/2 = assay: Western blot of ERK-1/2 phosphorylation in HUVEC; format: cell-based, human; conditions: for increase in ERK-1/2 phosphorylation levels: 100 nM, after 5 minutes; for time of maximum ERK phosphorylation levels: data not shown; for ERK-1 and ERK-2 phosphorylation with Pertussis toxin: incubation with Pertussis toxin
Excerpt: as §1

HUVEC [1] = assay: apoptosis induced by serum deprivation in HUVEC (DNA fragmentation); format: cell-based, human; conditions: for Emax at 0.01 µM: Homo sapiens, HUVEC, 10 nM, 8 hours serum deprivation, read-out: inhibition of DNA fragmentation (maximum effect); for anti-apoptotic effect with Pertussis toxin: Pertussis toxin treatment
Procedure: Since ERK-1 and ERK-2 activation is necessary for the survival effect of S1P in endothelial cells, it was tested if FTY720-P and its analog (R)-AFD could prevent apoptosis induced by serum deprivation in HUVEC. In this test, HUVEC cells were labeled with {methyl-^3H}-thymidine (1 μCi/ml) for 16 hours. Then, they were washed and 0.1% ffa-BSA M199 containing the different treatments was added. After 8 hours, fragmented DNA was solubilized and quantified as described.

VE-cadherin = VE-cadherin localization by immunofluorescence in HUVEC; format: cell-based, human; conditions: 30 minutes; 10 nM (S1P 100 nM)
Procedure: The effects of FTY720-P and (R)-AFD on the localization of VE-cadherin were studied using immunofluorescence analysis. In this study, 2×10^5 cells were plated in 35 millimeter glass bottom petri dishes. Three days later, the cells were washed and serum starved for 3 hours before treatments. Then, the cells were washed with ice-cold PBS, fixed, and immunofluorescence analysis with VE-cadherin antibody was conducted (1 μg/ml Santa Cruz). The primary antibody staining was visualized with Rhodamine-conjugated goat anti-mouse (1:1000, Cappel) IgG. Confocal microscopy was conducted on a Zeiss LSM 510 laser-scanning confocal microscope. Rhodamine fluorescence was excited using a 543 nm Helium/Neon laser and emitted fluorescence was detected with a […] long-pass filter.

[2] = system: Mouse embryonic endothelial cells; assay: VEGF-induced paracellular permeability (Transwell, FITC-dextran); format: cell-based; conditions: 100 nM, 1 hr pretreatment, 45 minute time point, VEGF 50 ng/ml
Procedure: Several studies have shown that VE-cadherin could be an important determinant of vascular permeability. […] A cellular system was used to assess the effects of S1P, FTY720-P and (R)-AFD on vascular permeability. Mouse embryonic endothelial cells (5×10^4) were cultured for 2 days in Transwell polycarbonate filters (6.5 mm diameter, 0.4 μm pores; Costar). Culture medium was replaced with serum/phenol red-free DMEM (HEPES buffer, L-glutamine, and pyridoxine hydrochloride) (0.1 mL upper chamber and 0.6 mL lower chamber). […] FITC-dextran (average MW=2,000 kDa), was added to the upper compartment either in the absence or presence of murine recombinant VEGF (50 ng/ml). Media from lower wells were taken after indicated time periods (5-45 minutes). Samples were placed in black solid bottom 96 well plates (Costar) and fluorescence intensities were measured using CytoFluor(R) fluorescence multi-well plate reader (Applied Biosystems) at 488 nm excitation. Data=mean±SE of duplicates. N=2. *p<0.01 VEGF vs. untreated. #p<0.01 treatments+VEGF vs. VEGF alone.

HUVEC [3] = assay: HUVEC migration (96 well chemotaxis microchamber); conditions: for fold induction at 0.01 µM: read-out: migration, fold induction at maximum effect; for induced migration in presence of Pertussis toxin: Pertussis toxin 200 ng/mL; for induction of endothelial cell migration: compound used directly as chemoattractant, 4 hours; for migration induced by conditioned medium: compound incubated with HUVEC for 3 hours, conditioned medium used as chemoattractant
Procedure: Briefly, polycarbonate filters with a pore size of 8 micrometers (μm) were coated with 5 micrograms per milliliter (μg/ml) fibronectin. […] Approximately 5×10^4 cells suspended in M199 with 0.1% bovine serum albumin were placed in the upper compartment. The cells were allowed to migrate for 4 hours at 37° C. in a humidified chamber with 5% CO2. After the incubation period, the filter was removed, and cells were stained in 0.1% crystal violet and eluted with 10% acetic acid in 96-well plates.
After incubation, conditioned medium was removed, centrifuged at 1,000×g for 10 minutes, and used in the migration assay.

[4] = system: kinase activity present in HUVEC (sphingosine kinase); assay: in vitro kinase assay with total cell extract from HUVEC; format: biochemical, human
Procedure: To confirm that FTY720 and (R)-AAL are phosphorylated by endothelial cells, an in vitro kinase assay was performed with both total cell extract and conditioned medium from HUVEC. […] Cells were scraped at 4° C. with 400 μl of 25 mM HEPES pH 7.5, […], 1× protease inhibitor mixture, and disrupted by brief sonication. Cellular homogenates were centrifuged for 10 minutes, 4° C. at 20,000×g. In the kinase assay, 300 μl of conditioned medium (derived from 5×10^5 cells for 3 hours of incubation) or 10 μg of total cell extract from HUVEC were used as a source of kinase activity. […] Lipids were extracted and samples were resuspended in 50 μl of chloroform. Lipids were resolved by TLC on Silica Gel G60 using 1-butanol/acetic acid/water (60/20/20 volume/volume) buffer and quantified with a PhosphorImager (Molecular Dynamics).

[5] = system: VEGF-induced vascular permeability; assay: mouse ear microvascular permeability assay (VEGF-induced); format: in vivo, FVB/N mice; conditions: mice, single oral administration (gavage, 50 μg) 5 hours prior
Procedure: The role of plasma borne FTY720-P or (R)-AFD in the regulation of vascular permeability was tested in vivo. In order to test this possibility, an in vivo vascular permeability model was used in FTY720, (R)-AFD or (S)-AAL-pretreated mice. […] Five hours post-gavage, animals were anesthetized with 2% Avertin™ (0.5 cc/20 g) and infused through the tail vein with 100 μl FITC-dextran (5 mg/ml, 165 kDa). Animals were placed on a warming table under a fluorescent dissecting microscope (Zeiss STV11, Zeiss, Inc.) and the central vessels in the ear were imaged. Control saline or mouse vascular endothelial growth factor (mVEGF, 10 ng/ml) was injected subdermally into the middle ear using a 30 gauge needle (30 μl). Ear vasculature was then imaged with fixed exposure times in a stationary position from 5 minutes to 120 minutes post-injection. Fluorescence images were then quantified using pixel-based threshold in ImageProPlus (Media Cybernetics, Inc.) and quantified.

SK2 = target: T1, SK2 (Mus musculus, UniProt Q9JIA7)
T1 sequence (Q9JIA7 1-617): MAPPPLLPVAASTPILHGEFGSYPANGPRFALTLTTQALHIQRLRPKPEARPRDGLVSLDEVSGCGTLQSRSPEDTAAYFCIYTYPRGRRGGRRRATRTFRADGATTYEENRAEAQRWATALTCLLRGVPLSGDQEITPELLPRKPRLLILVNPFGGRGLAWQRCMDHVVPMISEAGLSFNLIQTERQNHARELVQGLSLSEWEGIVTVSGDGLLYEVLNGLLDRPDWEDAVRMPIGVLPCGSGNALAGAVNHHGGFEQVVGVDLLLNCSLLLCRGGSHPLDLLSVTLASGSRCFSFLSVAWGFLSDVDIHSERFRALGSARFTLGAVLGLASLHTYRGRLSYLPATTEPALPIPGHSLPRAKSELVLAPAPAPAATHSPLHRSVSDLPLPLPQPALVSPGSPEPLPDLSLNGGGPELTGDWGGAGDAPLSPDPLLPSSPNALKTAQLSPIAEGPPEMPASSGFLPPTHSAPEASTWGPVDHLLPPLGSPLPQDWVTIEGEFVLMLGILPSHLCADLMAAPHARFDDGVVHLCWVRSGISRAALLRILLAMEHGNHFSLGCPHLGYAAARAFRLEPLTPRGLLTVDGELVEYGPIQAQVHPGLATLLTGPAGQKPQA

## CCCCCCCOc1ccc(CC[C@@](C)(N)COP(=O)(O)O)cc1 [(R)-AFD]
phospho-Akt
  increase in Akt phosphorylation levels: 4.5 fold
  time of maximum Akt phosphorylation levels: 5 min
  Akt phosphorylation with Pertussis toxin: blocked by incubation with Pertussis toxin
phospho-Akt; 5 minute stimulation
  Akt phosphorylation (in words): higher than the one induced by S1P
phospho-ERK-1/2
  increase in ERK-1/2 phosphorylation levels: 8.2 fold
  time of maximum ERK phosphorylation levels: 5 min
  ERK-1 and ERK-2 phosphorylation with Pertussis toxin: blocked by incubation with Pertussis toxin
phospho-ERK-1/2; 5 minute stimulation
  ERK-1/2 phosphorylation (in words): higher than the one induced by S1P
HUVEC [1]
  concentration of maximum anti-apoptotic effect: 10 nM
  Emax at 0.01 µM: ~70%
  anti-apoptotic effect with Pertussis toxin: blocked by Pertussis toxin treatment
VE-cadherin
  VE-cadherin localization at cell-cell contact regions / translocation to adherens junctions: increase in VE-cadherin localization at the cell-cell contact regions
[2]
  inhibition of VEGF-induced paracellular permeability: profoundly inhibited
HUVEC [3]
  concentration of maximum effect on migration: 10 nM
  induced migration in presence of Pertussis toxin: blocked by Pertussis toxin
  induction of endothelial cell migration: potent chemoattractants for HUVEC
HUVEC [3]; Homo sapiens, HUVEC
  fold induction at 0.01 µM: 9

## CCCCCCCCc1ccc(CCC(N)(CO)COP(=O)(O)O)cc1 (stereo not drawn) [FTY720-P]
phospho-Akt
  increase in Akt phosphorylation levels: 3.7 fold
  time of maximum Akt phosphorylation levels: 5 min
  Akt phosphorylation with Pertussis toxin: blocked by incubation with Pertussis toxin
phospho-Akt; 5 minute stimulation
  Akt phosphorylation (in words): higher than the one induced by S1P
phospho-ERK-1/2
  increase in ERK-1/2 phosphorylation levels: 9.3 fold
  time of maximum ERK phosphorylation levels: 5 min
  ERK-1 and ERK-2 phosphorylation with Pertussis toxin: blocked by incubation with Pertussis toxin
phospho-ERK-1/2; 5 minute stimulation
  ERK-1/2 phosphorylation (in words): higher than the one induced by S1P
HUVEC [1]
  concentration of maximum anti-apoptotic effect: 10 nM
  Emax at 0.01 µM: ~70%
  anti-apoptotic effect with Pertussis toxin: blocked by Pertussis toxin treatment
VE-cadherin
  VE-cadherin localization at cell-cell contact regions / translocation to adherens junctions: increase in VE-cadherin localization at the cell-cell contact regions
[2]
  inhibition of VEGF-induced paracellular permeability: profoundly inhibited
HUVEC [3]
  concentration of maximum effect on migration: 10 nM
  induced migration in presence of Pertussis toxin: blocked by Pertussis toxin
  induction of endothelial cell migration: potent chemoattractants for HUVEC
HUVEC [3]; Homo sapiens, HUVEC
  fold induction at 0.01 µM: 13

## CCCCCCCOc1ccc(CC[C@@](C)(N)CO)cc1 (stereo in doubt) [AAL, 2-amino-2-methyl-4-[4-heptoxy-phenyl]butane-1-ol]
phospho-Akt
  Akt phosphorylation (in words): did not induce phospho-Akt or phospho-ERK-1/2 levels
phospho-ERK-1/2
  ERK-1/2 phosphorylation (in words): did not induce phospho-Akt or phospho-ERK-1/2 levels

## CCCCCCCOc1ccc(CC[C@](C)(N)CO)cc1 [(S)-AAL, 2-amino-2-methyl-4-[4-heptoxy-phenyl]butane-1-ol]
[4]; HUVEC kinase activity, 100 μM
  phosphorylation of the substrate: undetectable
[5]
  inhibition of vascular permeability induced by VEGF: but not (S)-AAL also potently inhibited vascular permeability in vivo
SK2; SK2-[…]T extract, 100 μM
  phosphorylation of the substrate: barely detectable
HUVEC [3]
  migration induced by conditioned medium: did not induce migration after incubation with endothelial cells

## CCCCCCCCCCCCC/C=C/[C@@H](O)[C@@H](N)COP(=O)(O)O [S1P, Sphingosine-1-phosphate, reference compound]
phospho-Akt
  time of maximum Akt phosphorylation levels: 5 min
  Akt phosphorylation with Pertussis toxin: blocked by incubation with Pertussis toxin
phospho-ERK-1/2
  time of maximum ERK phosphorylation levels: 5 min
  ERK-1 and ERK-2 phosphorylation with Pertussis toxin: blocked by incubation with Pertussis toxin
HUVEC [1]
  anti-apoptotic effect with Pertussis toxin: blocked by Pertussis toxin treatment
VE-cadherin
  VE-cadherin localization at cell-cell contact regions / translocation to adherens junctions: comparable to that observed for S1P
[2]
  inhibition of VEGF-induced paracellular permeability: profoundly inhibited
HUVEC [3]; Homo sapiens, HUVEC, read-out: migration, fold induction
  fold induction at 0.1 µM: 14

## CCCCCCCOc1ccc(CC[C@@](C)(N)CO)cc1 [(R)-AAL, 2-amino-2-methyl-4-[4-heptoxy-phenyl]butane-1-ol]
[4]; HUVEC total cell extract, 100 μM FTY720 or AAL, 20 μM sphingosine, 30 minutes
  specific activity (phosphorylation of the substrate): 15 ± 0.93 pmol/mg/min
VE-cadherin
  VE-cadherin localization at cell-cell contact regions / translocation to adherens junctions: did not induce VE-cadherin translocation to the adherens junctions
[5]
  inhibition of vascular permeability induced by VEGF: potently inhibited vascular permeability in vivo
SK2; SK2-[…]T, 100 μM FTY720 or (R)-AAL, 20 μM sphingosine
  specific activity (phosphorylation of the substrate): 199.5 pmol/min/mg
HUVEC [3]
  migration induced by conditioned medium: activated into potent chemoattractants for endothelial cells
  induction of endothelial cell migration: Neither FTY720 nor its structural analog (R)-AAL induced endothelial cell migration
